Assay results published in patent US10538554B2, “Peptides and uses therefor as antiviral agents” (priority 2015, dated 2020).
Bridge positions count the residues as written; N and C are the ends. Square brackets hold non-standard residues; d marks the D form. Peptide text beside a SMILES is read from it.

Test system: H1N1 A/PR/8/1934
Details: A/PR/8/1934, 48 h, 1 μM

Structure (SMILES): CC[C@@H](C)[C@H]1NC(=O)[C@@H](Cc2ccccc2)NC(=O)[C@@H]([C@H](C)O)NC(=O)[C@@H](Cc2ccccc2)NC(=O)[C@@H](Cc2c[nH]c3ccccc23)NC(=O)[C@@H](Cc2c[nH]c3ccccc23)NC(=O)[C@H](NC(=O)[C@H](CCCCN)NC(=O)[C@H](CCCCN)NC(=O)[C@H](CCCNC(=N)N)NC(=O)[C@@H](N)CCCNC(=N)N)CSSC[C@H](C(=O)O)NC(=O)[C@@H](CC(=O)O)NC1=O [PSP VI A3, H-RRKKcwwftfidc-OH] (H-RRKK[dC][dW][dW][dF][dT][dF][dI][dD][dC]-OH; disulfide 5-13)
- % Inhibition: 66%

Structure (SMILES): CC[C@@H](C)[C@H]1NC(=O)[C@@H](Cc2ccccc2)NC(=O)[C@@H]([C@H](C)O)NC(=O)[C@@H](Cc2ccccc2)NC(=O)[C@@H](Cc2c[nH]c3ccccc23)NC(=O)[C@@H](Cc2ccc(O)cc2)NC(=O)[C@H](NC(=O)[C@H](CCCCN)NC(=O)[C@H](CCCCN)NC(=O)[C@H](CCCNC(=N)N)NC(=O)[C@@H](N)CCCNC(=N)N)CSSC[C@H](C(=O)O)NC(=O)[C@@H](CC(N)=O)NC1=O [PSP V A20, H-RRKKcywftfinc-OH] (H-RRKK[dC][dY][dW][dF][dT][dF][dI][dN][dC]-OH; disulfide 5-13)
- % Inhibition: <20%

Structure (SMILES): CC[C@@H](C)[C@H]1NC(=O)[C@@H](Cc2ccccc2)NC(=O)[C@@H]([C@H](C)O)NC(=O)[C@@H](Cc2ccccc2)NC(=O)[C@@H](Cc2c[nH]c3ccccc23)NC(=O)[C@@H](Cc2c[nH]c3ccccc23)NC(=O)[C@H](NC(=O)[C@H](CCCCN)NC(=O)[C@H](CCCCN)NC(=O)[C@H](CCCNC(=N)N)NC(=O)[C@@H](N)CCCNC(=N)N)CSSC[C@H](C(=O)O)NC(=O)[C@@H]([C@H](C)CC)NC1=O [PSP VI A8, H-RRKKcwwftfiic-OH] (H-RRKK[dC][dW][dW][dF][dT][dF][dI][dI][dC]-OH; disulfide 5-13)
- % Inhibition: 49%

Structure (SMILES): CC[C@@H](C)[C@H]1NC(=O)[C@@H](Cc2ccccc2)NC(=O)[C@@H]([C@H](C)O)NC(=O)[C@@H](Cc2ccccc2)NC(=O)[C@@H](Cc2c[nH]c3ccccc23)NC(=O)[C@@H](Cc2c[nH]c3ccccc23)NC(=O)[C@H](NC(=O)[C@H](CCCCN)NC(=O)[C@H](CCCCN)NC(=O)[C@H](CCCNC(=N)N)NC(=O)[C@@H](N)CCCNC(=N)N)CSSC[C@H](C(=O)O)NC(=O)[C@@H](CC(C)C)NC1=O [PSP VI A10, H-RRKKcwwftfilc-OH] (H-RRKK[dC][dW][dW][dF][dT][dF][dI][dL][dC]-OH; disulfide 5-13)
- % Inhibition: 48%

Structure (SMILES): CC[C@@H](C)[C@H]1NC(=O)[C@@H](Cc2ccccc2)NC(=O)[C@@H]([C@H](C)O)NC(=O)[C@@H](Cc2ccccc2)NC(=O)[C@@H](Cc2c[nH]c3ccccc23)NC(=O)[C@@H](CCCCN)NC(=O)[C@H](NC(=O)[C@H](CCCCN)NC(=O)[C@H](CCCCN)NC(=O)[C@H](CCCNC(=N)N)NC(=O)[C@@H](N)CCCNC(=N)N)CSSC[C@H](C(=O)O)NC(=O)[C@@H](CC(N)=O)NC1=O [PSP V A9, H-RRKKckwftfinc-OH] (H-RRKK[dC][dK][dW][dF][dT][dF][dI][dN][dC]-OH; disulfide 5-13)
- % Inhibition: 77%

Structure (SMILES): CC[C@@H](C)[C@H]1NC(=O)[C@@H](Cc2ccccc2)NC(=O)[C@@H]([C@H](C)O)NC(=O)[C@@H](Cc2ccccc2)NC(=O)[C@@H](Cc2c[nH]c3ccccc23)NC(=O)[C@@H](CCCNC(=N)N)NC(=O)[C@H](NC(=O)[C@H](CCCCN)NC(=O)[C@H](CCCCN)NC(=O)[C@H](CCCNC(=N)N)NC(=O)[C@@H](N)CCCNC(=N)N)CSSC[C@H](C(=O)O)NC(=O)[C@@H](CC(N)=O)NC1=O [PSP V A15, H-RRKKcrwftfinc-OH] (H-RRKK[dC][dR][dW][dF][dT][dF][dI][dN][dC]-OH; disulfide 5-13)
- % Inhibition: 87%

Structure (SMILES): CC[C@@H](C)[C@H]1NC(=O)[C@@H](Cc2ccccc2)NC(=O)[C@@H]([C@H](C)O)NC(=O)[C@@H](Cc2ccccc2)NC(=O)[C@@H](Cc2c[nH]c3ccccc23)NC(=O)[C@@H](C)NC(=O)[C@H](NC(=O)[C@H](CCCCN)NC(=O)[C@H](CCCCN)NC(=O)[C@H](CCCNC(=N)N)NC(=O)[C@@H](N)CCCNC(=N)N)CSSC[C@H](C(=O)O)NC(=O)[C@@H](CC(N)=O)NC1=O [PSP V A1, H-RRKKcawftfinc-OH] (H-RRKK[dC][dA][dW][dF][dT][dF][dI][dN][dC]-OH; disulfide 5-13)
- % Inhibition: <20%

Structure (SMILES): CC[C@@H](C)[C@H]1NC(=O)[C@@H](Cc2ccccc2)NC(=O)[C@@H]([C@H](C)O)NC(=O)[C@@H](Cc2ccccc2)NC(=O)[C@@H](Cc2c[nH]c3ccccc23)NC(=O)[C@@H](C(C)C)NC(=O)[C@H](NC(=O)[C@H](CCCCN)NC(=O)[C@H](CCCCN)NC(=O)[C@H](CCCNC(=N)N)NC(=O)[C@@H](N)CCCNC(=N)N)CSSC[C@H](C(=O)O)NC(=O)[C@@H](CC(N)=O)NC1=O [PSP V A18, H-RRKKcvwftfinc-OH] (H-RRKK[dC][dV][dW][dF][dT][dF][dI][dN][dC]-OH; disulfide 5-13)
- % Inhibition: 81%

Structure (SMILES): CC[C@@H](C)[C@H]1NC(=O)[C@@H](Cc2ccccc2)NC(=O)[C@@H]([C@H](C)O)NC(=O)[C@@H](Cc2ccccc2)NC(=O)[C@@H](Cc2c[nH]c3ccccc23)NC(=O)[C@H]2CCCN2C(=O)[C@H](NC(=O)[C@H](CCCCN)NC(=O)[C@H](CCCCN)NC(=O)[C@H](CCCNC(=N)N)NC(=O)[C@@H](N)CCCNC(=N)N)CSSC[C@H](C(=O)O)NC(=O)[C@@H](CC(N)=O)NC1=O [PSP V A13, H-RRKKcpwftfinc-OH] (H-RRKK[dC][dP][dW][dF][dT][dF][dI][dN][dC]-OH; disulfide 5-13)
- % Inhibition: <20%

Structure (SMILES): CC[C@@H](C)[C@H]1NC(=O)[C@@H](Cc2ccccc2)NC(=O)[C@@H]([C@H](C)O)NC(=O)[C@@H](Cc2ccccc2)NC(=O)[C@@H](Cc2c[nH]c3ccccc23)NC(=O)[C@@H](Cc2ccccc2)NC(=O)[C@H](NC(=O)[C@H](CCCCN)NC(=O)[C@H](CCCCN)NC(=O)[C@H](CCCNC(=N)N)NC(=O)[C@@H](N)CCCNC(=N)N)CSSC[C@H](C(=O)O)NC(=O)[C@@H](CC(N)=O)NC1=O [PSP V A5, H-RRKKcfWftfinc-OH] (H-RRKK[dC][dF][dW][dF][dT][dF][dI][dN][dC]-OH; disulfide 5-13)
- % Inhibition: 57%

Structure (SMILES): CC[C@@H](C)[C@H]1NC(=O)[C@@H](Cc2ccccc2)NC(=O)[C@@H]([C@H](C)O)NC(=O)[C@@H](Cc2ccccc2)NC(=O)[C@@H](Cc2c[nH]c3ccccc23)NC(=O)[C@@H](CS)NC(=O)[C@H](NC(=O)[C@H](CCCCN)NC(=O)[C@H](CCCCN)NC(=O)[C@H](CCCNC(=N)N)NC(=O)[C@@H](N)CCCNC(=N)N)CSSC[C@H](C(=O)O)NC(=O)[C@@H](CC(N)=O)NC1=O [PSP V A2, H-RRKKccwftfinc-OH] (H-RRKK[dC][dC][dW][dF][dT][dF][dI][dN][dC]-OH; disulfide 5-13)
- % Inhibition: <20%

Structure (SMILES): CC[C@@H](C)[C@H]1NC(=O)[C@@H](Cc2ccccc2)NC(=O)[C@@H]([C@H](C)O)NC(=O)[C@@H](Cc2ccccc2)NC(=O)[C@@H](Cc2c[nH]c3ccccc23)NC(=O)[C@@H](Cc2c[nH]c3ccccc23)NC(=O)[C@H](NC(=O)[C@H](CCCCN)NC(=O)[C@H](CCCCN)NC(=O)[C@H](CCCNC(=N)N)NC(=O)[C@@H](N)CCCNC(=N)N)CSSC[C@H](C(=O)O)NC(=O)[C@@H](CS)NC1=O [PSP VI A2, H-RRKKcwwftficc-OH] (H-RRKK[dC][dW][dW][dF][dT][dF][dI][dC][dC]-OH; disulfide 5-13)
- % Inhibition: 95%

Structure (SMILES): CC[C@@H](C)[C@H]1NC(=O)[C@@H](Cc2ccccc2)NC(=O)[C@@H]([C@H](C)O)NC(=O)[C@@H](Cc2ccccc2)NC(=O)[C@@H](Cc2c[nH]c3ccccc23)NC(=O)[C@@H](Cc2c[nH]c3ccccc23)NC(=O)[C@H](NC(=O)[C@H](CCCCN)NC(=O)[C@H](CCCCN)NC(=O)[C@H](CCCNC(=N)N)NC(=O)[C@@H](N)CCCNC(=N)N)CSSC[C@H](C(=O)O)NC(=O)[C@@H](C(C)C)NC1=O [PSP VI A18, H-RRKKcwwftfivc-OH] (H-RRKK[dC][dW][dW][dF][dT][dF][dI][dV][dC]-OH; disulfide 5-13)
- % Inhibition: 53%

Structure (SMILES): CC[C@@H](C)[C@H]1NC(=O)[C@@H](Cc2ccccc2)NC(=O)[C@@H]([C@H](C)O)NC(=O)[C@@H](Cc2ccccc2)NC(=O)[C@@H](Cc2c[nH]c3ccccc23)NC(=O)[C@@H](Cc2c[nH]cn2)NC(=O)[C@H](NC(=O)[C@H](CCCCN)NC(=O)[C@H](CCCCN)NC(=O)[C@H](CCCNC(=N)N)NC(=O)[C@@H](N)CCCNC(=N)N)CSSC[C@H](C(=O)O)NC(=O)[C@@H](CC(N)=O)NC1=O [PSP V A7, H-RRKKchwitfinc-OH] (H-RRKK[dC][dH][dW][dF][dT][dF][dI][dN][dC]-OH; disulfide 5-13)
- % Inhibition: 67%

Structure (SMILES): CC[C@@H](C)[C@H]1NC(=O)[C@@H](Cc2ccccc2)NC(=O)[C@@H]([C@H](C)O)NC(=O)[C@@H](Cc2ccccc2)NC(=O)[C@@H](Cc2c[nH]c3ccccc23)NC(=O)[C@@H](Cc2c[nH]c3ccccc23)NC(=O)[C@H](NC(=O)[C@H](CCCCN)NC(=O)[C@H](CCCCN)NC(=O)[C@H](CCCNC(=N)N)NC(=O)[C@@H](N)CCCNC(=N)N)CSSC[C@H](C(=O)O)NC(=O)[C@@H](CCSC)NC1=O [PSP VI A11, H-RRKKcwwftfimc-OH] (H-RRKK[dC][dW][dW][dF][dT][dF][dI][dM][dC]-OH; disulfide 5-13)
- % Inhibition: 79%

Structure (SMILES): CC[C@@H](C)[C@H]1NC(=O)[C@@H](Cc2ccccc2)NC(=O)[C@@H]([C@H](C)O)NC(=O)[C@@H](Cc2ccccc2)NC(=O)[C@@H](Cc2c[nH]c3ccccc23)NC(=O)[C@@H](Cc2c[nH]c3ccccc23)NC(=O)[C@H](NC(=O)[C@H](CCCCN)NC(=O)[C@H](CCCCN)NC(=O)[C@H](CCCNC(=N)N)NC(=O)[C@@H](N)CCCNC(=N)N)CSSC[C@H](C(=O)O)NC(=O)[C@@H](Cc2c[nH]cn2)NC1=O [PSP VI A7, H-RRKKcwwftfihc-OH] (H-RRKK[dC][dW][dW][dF][dT][dF][dI][dH][dC]-OH; disulfide 5-13)
- % Inhibition: 38.5%

Structure (SMILES): CC[C@@H](C)[C@H]1NC(=O)[C@@H](Cc2ccccc2)NC(=O)[C@@H]([C@H](C)O)NC(=O)[C@@H](Cc2ccccc2)NC(=O)[C@@H](Cc2c[nH]c3ccccc23)NC(=O)[C@@H](CC(N)=O)NC(=O)[C@H](NC(=O)[C@H](CCCCN)NC(=O)[C@H](CCCCN)NC(=O)[C@H](CCCNC(=N)N)NC(=O)[C@@H](N)CCCNC(=N)N)CSSC[C@H](C(=O)O)NC(=O)[C@@H](CC(N)=O)NC1=O [PSP V A12, H-RRKKcnwftfinc-OH] (H-RRKK[dC][dN][dW][dF][dT][dF][dI][dN][dC]-OH; disulfide 5-13)
- % Inhibition: <20%
